Assay results as given in patent US7812116B2, “Immunogenic peptides” (Rush University Medical Center, priority 2003, dated 2010).

Legend:
HLA-A2.1 = HLA-A2.1 (Homo sapiens, UniProt P04439, D140Y/D185E/D98H/E176V/E277Q/G131W/G231S/I119V/I121R/I166T/I218V/L300P/L318F/N151K/N90K/P208A/P217A/Q86G/Q94H/R138H/R169H/T345S); assay: Peptide/HLA-A2.1 complex stability on T2 cells under Brefeldin A treatment; assay type: binding
dendritic cells = assay: Phenotypic analysis of mature dendritic (mDC) and T2 antigen-presenting cells; assay type: cell-based, human; details: DCs from CD14+ monocytes, maturation factor during last three days of culture
Method: Immature DCs can be generated according to modified protocols of Romani N, et al., J Exp Med 180, pp. 83-89, 1994; and Bakker et al., Cancer Res 55, pp. 5330-5334, 1995. Briefly, fresh or frozen/thawed CD14+cells are cultured in RPMI 1640 medium (Gibco-Life Technologies, Gaithersburg, Md.) supplemented with 10% FCS, 1,000 U/ml GM-CSF and 1,000 U/ml IL-4. The cell cultures are fed with fresh medium and GM-CSF and IL-4 every other day and cell differentiation is monitored by light microscopy. On day 7, the cultures are supplemented with different combinations of DC maturation factors such as lipopolysaccharide (100 U/ml), TNF-α (10 ng/ml), or IFN-α (1,000 U/ml) plus TNF-α (10 ng/ml). After three days of incubation, mature DCs (mDC) are harvested and their phenotypes are evaluated by flow cytometry. The maturation factor(s) yielding optimal DC maturation are determined and used to generate mDCs for peptide pulsing in upcoming studies. In this example, immature DCs obtained by the culture of CD14+monocytes with GM-CSF (1,000 U/ml) and IL-4 (1,000 U/ml) are induced to undergo maturation by incubation with LPS (100 Units/ml), TNF-α (10 ng/ml) or TNF-α (10 ng/ml)+IFN-γ (50 ng/ml) during the final three days of the culture period. […] HLA-DR and no expression of CD3 or CD14 (data not shown). The highest up-regulation of the co-immunostimulatory (CD80 and CD86) and HLA-A2.1 MHC class I molecules is detected on DCs treated with TNF-α+IFN-γ (Table 5). […] The phenotype of the T2 cell line is evaluated to determine its potential for use as an alternative type of antigen presenting cell. […] The expression of CD80 is higher on T2 cells compared to mDCs.

LLFLTPMEV (listed as Homo sapiens) [SEQ ID NO: 3, CD19 9-mer fragment]
HLA-A2.1 binding and stability in words (HLA-A2.1): good and prolonged stable binding

SLFLGILSV (listed as Homo sapiens) [SEQ ID NO: 6, CD20 9-mer fragment]
HLA-A2.1 binding and stability in words (HLA-A2.1): good and prolonged stable binding

TLAYLIFCL (listed as Homo sapiens) [SEQ ID NO: 2, CD19 9-mer fragment]
HLA-A2.1 binding and stability in words (HLA-A2.1): good and prolonged stable binding

TNF-α
CD80 mean channel fluorescence (MCF) (dendritic cells): 107 | CD86 mean channel fluorescence (MCF) (dendritic cells): 96 | HLA-A2.1 mean channel fluorescence (MCF) (dendritic cells): 475

lipopolysaccharide [LPS, reference compound]
CD80 mean channel fluorescence (MCF) (dendritic cells): 71 | CD86 mean channel fluorescence (MCF) (dendritic cells): 40 | HLA-A2.1 mean channel fluorescence (MCF) (dendritic cells): 316
